Results from the supplement of paper PMC13380429.

How the values were obtained:
Settings in all cases: 72 h
Calu-3 [1] = assay: relative viability EC50 (midpoint between 100% and the lowest measured viability); higher = less toxic
HepG2 [2] = assay: as above
U2OS [3] = assay: as above
Caco-2 [4] = assay: as above
Vero E6 [5] = assay: as above
Calu-3 [6] = assay: cell viability relative to DMSO; higher = less toxic
HepG2 [7] = assay: as above
U2OS [8] = assay: as above
Caco-2 [9] = assay: as above
Vero E6 [10] = assay: as above
Calu-3 [11] = assay: drug sensitivity score (DSS) for viability; higher = more toxic; extreme values may be limits of the assay
HepG2 [12] = assay: as above
U2OS [13] = assay: as above
Caco-2 [14] = assay: as above
Vero E6 [15] = assay: as above

SMILES | relative viability EC50 (Calu-3 [1]) [µM] | relative viability EC50 (HepG2 [2]) [µM] | relative viability EC50 (U2OS [3]) [µM] | relative viability EC50 (Caco-2 [4]) [µM] | relative viability EC50 (Vero E6 [5]) [µM] | cell viability (Calu-3 [6]; 1 nM) [%] | cell viability (Calu-3 [6]; 10 nM) [%] | cell viability (Calu-3 [6]; 100 nM) [%] | cell viability (Calu-3 [6]; 1000 nM) [%] | cell viability (Calu-3 [6]; 10000 nM) [%] | cell viability (HepG2 [7]; 1 nM) [%] | cell viability (HepG2 [7]; 10 nM) [%] | cell viability (HepG2 [7]; 100 nM) [%] | cell viability (HepG2 [7]; 1000 nM) [%] | cell viability (HepG2 [7]; 10000 nM) [%] | cell viability (U2OS [8]; 1 nM) [%] | cell viability (U2OS [8]; 10 nM) [%] | cell viability (U2OS [8]; 100 nM) [%] | cell viability (U2OS [8]; 1000 nM) [%] | cell viability (U2OS [8]; 10000 nM) [%] | cell viability (Caco-2 [9]; 1 nM) [%] | cell viability (Caco-2 [9]; 10 nM) [%] | cell viability (Caco-2 [9]; 100 nM) [%] | cell viability (Caco-2 [9]; 1000 nM) [%] | cell viability (Caco-2 [9]; 10000 nM) [%] | cell viability (Vero E6 [10]; 1 nM) [%] | cell viability (Vero E6 [10]; 10 nM) [%] | cell viability (Vero E6 [10]; 100 nM) [%] | cell viability (Vero E6 [10]; 1000 nM) [%] | cell viability (Vero E6 [10]; 10000 nM) [%] | drug sensitivity score (Calu-3 [11]) | drug sensitivity score (HepG2 [12]) | drug sensitivity score (U2OS [13]) | drug sensitivity score (Caco-2 [14]) | drug sensitivity score (Vero E6 [15])
NC[C@H]1O[C@H](O[C@H]2[C@H](O)[C@@H](O[C@H]3O[C@H](CO)[C@@H](O)[C@H](N)[C@H]3O)[C@H](N)C[C@@H]2N)[C@H](N)C[C@@H]1O [tobramycin] | > 10 | > 10 | > 10 | > 10 | > 10 | 99.4 | 102 | 101 | 98.5 | 102 | 108 | 94.5 | 104 | 97.6 | 106 | 95 | 103 | 97.6 | 100 | 108 | 90.2 | 92.8 | 104 | 92.6 | 106 | 99.6 | 101 | 100 | 95.7 | 107 | 0 | 0 | 0 | 0 | 0
Cc1cc(-n2c(=O)[nH]c(=O)n(C)c2=O)ccc1Oc1ccc(SC(F)(F)F)cc1 [toltrazuril] | > 10 | > 10 | > 10 | > 10 | > 10 | 98.8 | 83.1 | 105 | 106 | 101 | 90.4 | 107 | 99.5 | 95.9 | 102 | 97.2 | 95.2 | 93.1 | 99.6 | 92.1 | 104 | 109 | 105 | 97.1 | 97.4 | 99.5 | 105 | 101 | 96.3 | 95.8 | 0 | 0 | 0 | 0 | 0
CCCc1c(OCCCCc2nnn[nH]2)ccc(C(C)=O)c1O [tomelukast] | > 10 | > 10 | > 10 | > 10 | > 10 | 87.4 | 105 | 107 | 102 | 104 | 95.6 | 90.3 | 94.5 | 82.9 | 84.8 | 94.9 | 103 | 98.1 | 99.7 | 99.6 | 88.9 | 93.9 | 97.8 | 105 | 97.6 | 94.5 | 98.5 | 107 | 96.6 | 106 | 0 | 1.5 | 0 | 0 | 0
CN1C(=O)OC(C)(C)C1=O [trimethadione] | > 10 | > 10 | > 10 | > 10 | > 10 | 96.1 | 102 | 97.9 | 118 | 108 | 103 | 105 | 93.6 | 80.4 | 90 | 103 | 99.9 | 103 | 105 | 108 | 101 | 97.3 | 114 | 90 | 93.3 | 100 | 100 | 101 | 85.1 | 104 | 0 | 3.4 | 0 | 0 | 0
COc1cc(C[C@@H]2NCCc3cc(O)c(O)cc32)cc(OC)c1OC [trimethoquinol] | > 10 | > 10 | > 10 | > 10 | > 10 | 91.7 | 88.9 | 101 | 86 | 95.7 | 110 | 99.2 | 112 | 90.6 | 83.5 | 89.5 | 97 | 97.3 | 102 | 107 | 91.3 | 114 | 118 | 107 | 80.3 | 103 | 93.1 | 108 | 93.8 | 96.9 | 0 | 1.1 | 0 | 0.3 | 0
N#CC(C#N)=Cc1ccc(O)c(O)c1 [tyrphostin-AG-18] | > 10 | > 10 | > 10 | > 10 | > 10 | 93.5 | 104 | 105 | 107 | 111 | 93 | 96.8 | 97.7 | 102 | 87.9 | 96.1 | 98.1 | 95.2 | 96.5 | 92.1 | 88.2 | 96.4 | 93.9 | 89.2 | 91.6 | 96.4 | 92.1 | 96.6 | 94.9 | 94.9 | 0 | 0 | 0 | 0 | 0
COc1cc(N)c(Cl)cc1C(=O)NC1CN2CCC1CC2 (stereo not given) [zacopride] | > 10 | > 10 | > 10 | > 10 | > 10 | 96.9 | 100 | 97 | 85 | 95.3 | 107 | 99.5 | 102 | 100 | 109 | 92.5 | 96.3 | 96.7 | 98.3 | 92.2 | 101 | 97.6 | 97.6 | 95.7 | 110 | 98.9 | 92.8 | 97.9 | 97.4 | 106 | 0 | 0 | 0 | 0 | 0
